From the NIST ThermoML archive (doi:10.1021/acs.jced.5b00662)
Where “and” joins values, the source holds several entries; their conditions need not be identical. Identical values can stand only once.

Assays:
[1] = 101.33 kPa, Liquid; for speed of sound: Sing-around technique in a fixed-path interferometer; for mass density: Vibrating tube method; for viscosity: Concentric cylinders viscometry
[2] = refractive index (Na D-line) (dimensionless); details: 101.33 kPa, Liquid, Standard Abbe refractometry
[3] = xn = mol fraction of the nth substance listed; details: 100 kPa, Liquid; for speed of sound: Sing-around technique in a fixed-path interferometer; for mass density: Vibrating tube method

COCCOCCO [2-(2-methoxyethoxy)ethanol]
Details | mass density, [1] | refractive index, [2] | speed of sound, [1] [m/s] | viscosity, [1] [mPa·s]
283.15 K | 1028.6 kg/m3 | 1.42914 | 1467.7 | –
288.15 K | 1025.3 kg/m3 and 1024.2 kg/m3 | 1.42723 | 1450.2 | 4.514
293.15 K | 1021 kg/m3 and 1019.8 kg/m3 | 1.42498 | 1432.7 | 3.963
298.15 K | 1015.4 kg/m3 and 1016.3 kg/m3 | 1.4239 | 1415.4 | 3.403
303.15 K | 1011 kg/m3 and 1011.9 kg/m3 | 1.42174 | 1398.1 | 3
308.15 K | 1006.6 kg/m3 and 1007.4 kg/m3 | – | 1380.9 | 2.666
313.15 K | 1002.1 kg/m3 and 1003 kg/m3 | 1.41733 | 1363.9 | 2.373
318.15 K | 998.8 kg/m3 | – | – | 2.148
323.15 K | 993.2 kg/m3 and 994.3 kg/m3 | 1.41368 | 1329.7 | 1.946
328.15 K | 989.8 kg/m3 | – | – | 1.772
333.15 K | 984.1 kg/m3 and 985.3 kg/m3 | 1.4101 | 1296.1 | 1.606
338.15 K | 981 kg/m3 | – | – | 1.489
343.15 K | 976.5 kg/m3 and 975 kg/m3 | 1.40635 | 1262.7 | 1.372
348.15 K | 971.8 kg/m3 | – | – | 1.268
353.15 K | 967.2 kg/m3 | 1.40241 | – | 1.155
358.15 K | 962.5 kg/m3 | – | – | 1.094
363.15 K | 957.9 kg/m3 | – | – | 1.019
368.15 K | 953.1 kg/m3 | – | – | 0.95
373.15 K | 948.5 kg/m3 | – | – | 0.877

OCCOCCOCCO [triethylene glycol]
Details | mass density, [1] | refractive index, [2] | speed of sound, [1] [m/s] | viscosity, [1] [mPa·s]
283.15 K | 1131.3 kg/m3 | 1.45944 | 1658.7 | –
288.15 K | 1128.6 kg/m3 and 1127.4 kg/m3 | 1.45774 | 1642.8 | 63.57
293.15 K | 1124.6 kg/m3 and 1123.5 kg/m3 | 1.4561 | 1627.2 | 48.05
298.15 K | 1119.7 kg/m3 and 1120.7 kg/m3 | 1.45447 | 1611.5 | 37.27
303.15 K | 1115.8 kg/m3 and 1116.8 kg/m3 | 1.45283 | 1596.2 | 29.41
308.15 K | 1111.9 kg/m3 and 1112.9 kg/m3 | – | 1581.1 | 23.6
313.15 K | 1108 kg/m3 and 1109 kg/m3 | 1.44955 | 1566 | 19.16
318.15 K | 1105.1 kg/m3 | – | – | 15.86
323.15 K | 1100.2 kg/m3 and 1101.2 kg/m3 | 1.44626 | 1536.3 | 13.25
328.15 K | 1097.3 kg/m3 | – | – | 11.19
333.15 K | 1092.4 kg/m3 and 1093.4 kg/m3 | 1.44293 | 1506.8 | 9.528
338.15 K | 1089.5 kg/m3 | – | – | 8.221
343.15 K | 1085.6 kg/m3 and 1084.5 kg/m3 | 1.43956 | 1477.5 | 7.137
348.15 K | 1081.7 kg/m3 | – | – | 6.243
353.15 K | 1077.8 kg/m3 | 1.43622 | – | 5.487
358.15 K | 1073.8 kg/m3 | – | – | 4.874
363.15 K | 1069.8 kg/m3 | – | – | 4.346
368.15 K | 1065.9 kg/m3 | – | – | 3.896
373.15 K | 1061.9 kg/m3 | – | – | 3.515

OCCO [1,2-ethanediol]
Details | mass density, [1] | refractive index, [2] | speed of sound, [1] [m/s] | viscosity, [1] [mPa·s]
283.15 K | 1120.2 kg/m3 | 1.43461 | 1689.9 | –
288.15 K | 1118.2 kg/m3 | 1.43312 | 1678.3 | 26.8
293.15 K | 1114.6 kg/m3 and 1113.3 kg/m3 | 1.43167 | 1666.5 | 21.2
298.15 K | 1111.1 kg/m3 | 1.43 | 1654.7 | 17.13
303.15 K | 1106.3 kg/m3 and 1107.6 kg/m3 | 1.42855 | 1642.9 | 14
308.15 K | 1104.1 kg/m3 | – | 1631.1 | 11.58
313.15 K | 1099.2 kg/m3 and 1100.5 kg/m3 | 1.42562 | 1619.3 | 9.627
318.15 K | 1097 kg/m3 | – | – | 8.182
323.15 K | 1092.1 kg/m3 and 1093.4 kg/m3 | 1.4226 | 1595.5 | 6.98
328.15 K | 1089.8 kg/m3 | – | – | 6.007
333.15 K | 1084.8 kg/m3 and 1086.2 kg/m3 | 1.41955 | 1571.5 | 5.197
338.15 K | 1082.6 kg/m3 | – | – | 4.555
343.15 K | 1078.9 kg/m3 and 1077.5 kg/m3 | 1.41655 | 1547.4 | 4.01
348.15 K | 1075.2 kg/m3 | – | – | 3.552
353.15 K | 1071.5 kg/m3 | 1.41351 | – | 3.161
358.15 K | 1067.8 kg/m3 | – | – | 2.835
363.15 K | 1064 kg/m3 | – | – | 2.552
368.15 K | 1060.2 kg/m3 | – | – | 2.306
373.15 K | 1056.4 kg/m3 | – | – | 2.102

OCCOCCO [diethylene glycol]
Details | mass density, [1] | refractive index, [2] | speed of sound, [1] [m/s] | viscosity, [1] [mPa·s]
283.15 K | 1123.3 kg/m3 | 1.45019 | 1615.9 | –
288.15 K | 1121.4 kg/m3 and 1119.8 kg/m3 | 1.4486 | 1603.6 | 47.14
293.15 K | 1117.8 kg/m3 and 1116.2 kg/m3 | 1.44702 | 1591.4 | 36.02
298.15 K | 1112.7 kg/m3 and 1114.2 kg/m3 | 1.4454 | 1579.2 | 28.23
303.15 K | 1109.1 kg/m3 and 1110.6 kg/m3 | 1.44379 | 1566.9 | 22.48
308.15 K | 1105.5 kg/m3 and 1107 kg/m3 | – | 1554.9 | 18.18
313.15 K | 1101.9 kg/m3 and 1103.4 kg/m3 | 1.44068 | 1542.8 | 14.85
318.15 K | 1099.7 kg/m3 | – | – | 12.4
323.15 K | 1094.7 kg/m3 and 1096.1 kg/m3 | 1.43745 | 1518.8 | 10.42
328.15 K | 1092.5 kg/m3 | – | – | 8.849
333.15 K | 1087.4 kg/m3 and 1088.8 kg/m3 | 1.43424 | 1494.5 | 7.57
338.15 K | 1085.2 kg/m3 | – | – | 6.561
343.15 K | 1081.5 kg/m3 and 1080 kg/m3 | 1.43105 | 1470.1 | 5.718
348.15 K | 1077.8 kg/m3 | – | – | 5.019
353.15 K | 1074.1 kg/m3 | 1.42786 | – | 4.429
358.15 K | 1070.3 kg/m3 | – | – | 3.944
363.15 K | 1066.6 kg/m3 | – | – | 3.527
368.15 K | 1062.8 kg/m3 | – | – | 3.169
373.15 K | 1059 kg/m3 | – | – | 2.871

OCCO [1,2-ethanediol] + O
[3]
Details | mass density, x1 = 0.9886 [kg/m3] | mass density, x1 = 0.9943 [kg/m3] | mass density, x1 = 0.9959 [kg/m3] | speed of sound, x1 = 0.9886 [m/s] | speed of sound, x1 = 0.9943 [m/s] | speed of sound, x1 = 0.9959 [m/s]
283.15 K | 1119.9 | 1120.07 | 1120.11 | 1690.2 | 1689 | 1690.6
288.15 K | 1116.43 | – | – | 1678.4 | 1678.1 | 1678.6
293.15 K | 1112.94 | 1113.11 | 1113.15 | 1666.6 | 1666.3 | 1666.6
298.15 K | 1109.46 | – | – | 1654.7 | 1654.8 | 1654.6
303.15 K | 1105.95 | 1106.11 | 1106.15 | 1643 | 1643 | 1642.7
308.15 K | 1102.43 | – | – | 1631.2 | 1631.3 | 1630.9
313.15 K | 1098.89 | 1099.05 | 1099.1 | 1619.5 | 1619.4 | 1619.1
323.15 K | 1091.75 | 1091.9 | 1091.95 | 1595.7 | 1595.5 | 1595.2
333.15 K | 1084.51 | 1084.67 | 1084.72 | 1571.7 | 1571.5 | 1571.2
343.15 K | 1077.16 | 1077.33 | 1077.37 | 1547.6 | 1547.4 | 1547.1
